Measured values taken from patent US20080255169A1 (priority 2004, published 2008).

Key:
[1] = biological target: α2β1 integrin (Homo sapiens, UniProt P05556+P17301); assay: Cell adhesion assay; assay type: cell-based
[2] = biological target: α2β1 integrin (Homo sapiens, UniProt P17301); assay: Cell adhesion assay; assay type: cell-based
Chain of α2β1 integrin (Homo sapiens, UniProt P17301) (P17301 30-1181): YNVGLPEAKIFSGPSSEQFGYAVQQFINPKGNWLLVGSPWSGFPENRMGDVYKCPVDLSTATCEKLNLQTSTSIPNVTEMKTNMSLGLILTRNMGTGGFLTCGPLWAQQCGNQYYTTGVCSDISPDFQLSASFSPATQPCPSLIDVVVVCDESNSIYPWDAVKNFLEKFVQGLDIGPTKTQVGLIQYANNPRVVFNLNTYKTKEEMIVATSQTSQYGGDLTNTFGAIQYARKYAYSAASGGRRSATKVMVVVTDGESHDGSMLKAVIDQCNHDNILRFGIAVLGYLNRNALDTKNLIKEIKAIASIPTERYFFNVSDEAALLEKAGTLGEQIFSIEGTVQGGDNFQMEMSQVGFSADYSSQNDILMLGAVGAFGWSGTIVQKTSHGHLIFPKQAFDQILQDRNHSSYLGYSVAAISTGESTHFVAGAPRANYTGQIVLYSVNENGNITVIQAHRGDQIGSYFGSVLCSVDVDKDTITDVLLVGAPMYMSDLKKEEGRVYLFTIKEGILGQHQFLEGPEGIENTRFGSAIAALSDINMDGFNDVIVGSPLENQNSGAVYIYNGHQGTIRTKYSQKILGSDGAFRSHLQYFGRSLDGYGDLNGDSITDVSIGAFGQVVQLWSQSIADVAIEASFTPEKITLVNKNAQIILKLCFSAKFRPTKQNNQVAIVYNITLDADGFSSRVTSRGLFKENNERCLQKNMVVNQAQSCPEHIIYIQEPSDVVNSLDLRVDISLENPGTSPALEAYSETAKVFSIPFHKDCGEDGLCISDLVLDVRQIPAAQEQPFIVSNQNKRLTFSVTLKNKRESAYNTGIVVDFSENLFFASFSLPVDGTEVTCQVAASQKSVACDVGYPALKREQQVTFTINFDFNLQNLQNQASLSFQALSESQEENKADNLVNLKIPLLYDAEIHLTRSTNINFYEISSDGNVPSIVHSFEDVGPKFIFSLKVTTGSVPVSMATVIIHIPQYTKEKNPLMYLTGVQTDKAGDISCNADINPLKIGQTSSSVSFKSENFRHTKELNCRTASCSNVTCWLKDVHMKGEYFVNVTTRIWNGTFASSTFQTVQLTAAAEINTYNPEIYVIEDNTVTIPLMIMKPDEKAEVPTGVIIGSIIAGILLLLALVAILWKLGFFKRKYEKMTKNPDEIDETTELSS
Chain of α2β1 integrin (Homo sapiens, UniProt P17301) (P05556 21-798 partner): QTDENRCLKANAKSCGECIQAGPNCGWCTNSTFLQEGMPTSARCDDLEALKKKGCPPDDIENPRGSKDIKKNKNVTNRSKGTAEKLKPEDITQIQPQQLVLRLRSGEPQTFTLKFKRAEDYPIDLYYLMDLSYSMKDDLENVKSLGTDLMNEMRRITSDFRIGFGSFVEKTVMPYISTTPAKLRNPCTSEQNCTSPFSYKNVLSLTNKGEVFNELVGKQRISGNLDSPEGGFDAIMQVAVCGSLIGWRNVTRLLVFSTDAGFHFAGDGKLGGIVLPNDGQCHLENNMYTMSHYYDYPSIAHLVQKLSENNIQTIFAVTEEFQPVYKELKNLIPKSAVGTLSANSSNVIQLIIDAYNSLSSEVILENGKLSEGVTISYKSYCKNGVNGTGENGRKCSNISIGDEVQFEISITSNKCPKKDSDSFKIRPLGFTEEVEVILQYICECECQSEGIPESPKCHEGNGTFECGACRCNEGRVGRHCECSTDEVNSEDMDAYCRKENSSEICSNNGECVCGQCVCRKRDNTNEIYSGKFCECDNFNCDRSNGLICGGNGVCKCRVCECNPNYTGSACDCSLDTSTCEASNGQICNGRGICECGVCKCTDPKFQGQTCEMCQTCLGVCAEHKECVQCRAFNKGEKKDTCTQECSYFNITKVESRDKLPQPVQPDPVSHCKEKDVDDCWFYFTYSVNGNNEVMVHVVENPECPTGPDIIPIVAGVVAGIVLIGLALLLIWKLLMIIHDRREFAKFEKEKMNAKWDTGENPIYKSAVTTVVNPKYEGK

Chain of α2β1 integrin (Homo sapiens, UniProt P05556+P17301) (P17301 30-1181): as the sequence (P17301 30-1181) above
Chain of α2β1 integrin (Homo sapiens, UniProt P05556+P17301) (P05556 21-798 partner): as the sequence (P05556 21-798 partner) above

EC50 ([1]; read-out: EC50 in cell adhesion assay) [µM] | Emax in cell adhesion assay ([2]; concentration not given) [%] | melting point [°C] | Emax at 50 µM ([1]; at 50 μM) [%] | EC50 in cell adhesion assay [2] | Compound
13 | 65 | 43 | – | – | COc1ccc(-c2cccc(S(=O)(=O)Nc3ccc(N(C)C)cc3)c2)cc1OC [Compound 102, 3′,4′-dimethoxy-biphenyl-3-sulphonic acid (4-dimethylamino-phenyl)-amide]
– | – | – | 80 | dd could not be detected | Cc1[nH]c2ccc(NS(=O)(=O)c3ccc(Cl)cc3Cl)cc2c1C [Compound 210]
